“And” between values parts separate entries of the source, which are not always exact repeats. Identical values can stand only once. Where a SMILES comes first, the peptide text is derived from it.
Tests used:
[1] = tested on: marrow cells (Mk precursor cell population); experiment: Mouse marrow cells in semi-solid medium (methylcellulose), colonies of large cells; assay type: cell-based; conditions: 1 nM TPO; 7 days in methylcellulose; replicates #1-1 to #2-2
Description: To assess the feasibility of mice as a convenient test species, several in vitro experiments, designed to measure the activity of the test compounds on the mouse receptor, have been done. First, marrow cells, harvested from the femurs of 8 to 9 week one Balb/C mice, were incubated for 7 days in liquid culture with either rhuTPO or various concentrations of the test peptides. At the end of the incubation period, the cultures were concentrated by Cytospin, stained for acetylcholinesterase (AChE, a diagnostic of mouse megakaryocytes), and counted by microscopic analysis. One (X) nM rhuTPO gave rise to the outgrowth of very large (>40 um) non-adherent cells that stain for AChE. These cells appear to be mature megakaryocytes. From an initial seeding of 10^6 total marrow cells/ml (in 50 ml cultures) an estimated 1 to 2×10^6 megakaryocytes developed. This responce to TPO was designated as “maximal”. Control cultures containing no added growth factors produced very few AChE-positive cells. […] In a second experiment, marrow cells were harvested and cultured in semi-solid medium (methylcellulose) containing either no factors, 1 nM rhuTPO, or 10 uM Peptide A. After 7 days in culture, colonies of large cell (presumed to be megakaryocytes) were counted and grouped into small colonies (3-5 cells) or large colonies (greater than 6 cells). […]

[2] = tested on: marrow cells of Balb/C mice (mouse receptor); experiment: Mouse marrow cells in liquid culture, AChE-positive megakaryocyte outgrowth; assay type: cell-based; conditions: for Response (AChE-positive megakaryocytes): 7 days liquid culture
Description: To assess the feasibility of mice as a convenient test species, several in vitro experiments, designed to measure the activity of the test compounds on the mouse receptor, have been done. First, marrow cells, harvested from the femurs of 8 to 9 week one Balb/C mice, were incubated for 7 days in liquid culture with either rhuTPO or various concentrations of the test peptides. At the end of the incubation period, the cultures were concentrated by Cytospin, stained for acetylcholinesterase (AChE, a diagnostic of mouse megakaryocytes), and counted by microscopic analysis. One (X) nM rhuTPO gave rise to the outgrowth of very large (>40 um) non-adherent cells that stain for AChE. These cells appear to be mature megakaryocytes. From an initial seeding of 10^6 total marrow cells/ml (in 50 ml cultures) an estimated 1 to 2×10^6 megakaryocytes developed. This responce to TPO was designated as “maximal”. Control cultures containing no added growth factors produced very few AChE-positive cells. […] This finding was the first evidence that this peptide family is active on the murine receptor. In a second experiment, marrow cells were harvested and cultured in semi-solid medium (methylcellulose) containing either no factors, 1 nM rhuTPO, or 10 uM Peptide A. After 7 days in culture, colonies of large cell (presumed to be megakaryocytes) were counted and grouped into small colonies (3-5 cells) or large colonies (greater than 6 cells). TPO and the test peptides both produced substantially more colonies of both sized than did the negative control cultures.

TPO-R = biological target: T1, TPO-R (Homo sapiens, UniProt P40238); experiment: Competition binding assay (equilibrium binding ELISA, MBP-TPO156 tracer) on immobilized TPO-R; conditions: Table 4, cyclized compounds; read-out: IC50
T1 construct: made in house
T1 sequence (P40238 26-491 limits assumed): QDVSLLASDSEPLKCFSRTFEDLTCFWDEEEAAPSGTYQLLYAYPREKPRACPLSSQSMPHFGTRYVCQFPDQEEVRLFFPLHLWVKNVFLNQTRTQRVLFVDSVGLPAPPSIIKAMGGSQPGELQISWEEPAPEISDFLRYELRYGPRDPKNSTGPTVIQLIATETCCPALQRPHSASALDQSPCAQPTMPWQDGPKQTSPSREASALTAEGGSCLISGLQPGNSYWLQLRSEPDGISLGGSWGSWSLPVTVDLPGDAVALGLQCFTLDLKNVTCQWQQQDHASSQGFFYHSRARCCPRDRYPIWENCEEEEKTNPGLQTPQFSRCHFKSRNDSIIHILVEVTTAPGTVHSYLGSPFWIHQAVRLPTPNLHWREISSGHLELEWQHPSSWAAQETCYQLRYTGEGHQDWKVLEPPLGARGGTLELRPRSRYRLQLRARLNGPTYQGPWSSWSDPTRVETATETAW
Description: A variety of methods can be used to evaluate IC50 values. For example, an equilibrium binding ELISA assay, using either MBP-TPO or lacI-peptide tracer, was used to determine whether the peptides inhibit the binding of TPO to the extracellular domain of the TPO receptor. Typically, the IC50 value were determined using the free peptide. The IC50 value can be determined using the free peptide, which optionally can be C-terminally amidated, or can be prepared as an ester or other carboxy amide.
Binding affinities of chemically synthesized peptides for TPO-R were measured in a competition binding assay. The wells of a microtiter plate were coated with 1 mg streptavidin, blocked with PBS/1% BSA, followed by 50 ng of biotinylated anti-receptor immobilizing antibody (Ab179). The wells were then treated with a 1:10 dilution of soluble TPO-R harvest. Various concentrations of peptide or peptide mimetic were mixed with a constant amount of a truncated form of TPO consisting of residues 1-156 fused to the C-terminus of maltose binding protein (MBP-TPO156). The peptide MBP-TPO156 mixtures were added to the TPO-R coated wells, incubated for 2 hours at 4° C. and then washed with PBS. The amount of MBP-TPO156 that was bound at equilibrium was measured by adding a rabbit anti-sera directed against MBP, followed by alkaline phosphatase conjugated goat anti-rabbit IgG. The amount of alkaline phosphatase in each well was then determined using standard methods.
The assay is conducted over a range of peptide concentrations and the results are graphed such that the y axis represents the amount of bound MBP-TPO156 and the x axis represents the concentration of peptide or peptide mimetic.

[3] = biological target: T2, human TPO-R (transfected Ba/F3 cells) (Homo sapiens, UniProt P40238); experiment: Thrombopoietin dependent cell proliferation assay (MTT), TPO-R transfected Ba/F3 cells; assay type: cell-based; conditions: Table 4, cyclized compounds; read-out: EC50 (nM) Proliferation
T2 construct: Murine IL-3 dependent Ba/F3 cells were transfected with full length human TPO-R; expressed in transfected cells; host or cells: murine Ba/F3 cells
T2 sequence (P40238 26-635): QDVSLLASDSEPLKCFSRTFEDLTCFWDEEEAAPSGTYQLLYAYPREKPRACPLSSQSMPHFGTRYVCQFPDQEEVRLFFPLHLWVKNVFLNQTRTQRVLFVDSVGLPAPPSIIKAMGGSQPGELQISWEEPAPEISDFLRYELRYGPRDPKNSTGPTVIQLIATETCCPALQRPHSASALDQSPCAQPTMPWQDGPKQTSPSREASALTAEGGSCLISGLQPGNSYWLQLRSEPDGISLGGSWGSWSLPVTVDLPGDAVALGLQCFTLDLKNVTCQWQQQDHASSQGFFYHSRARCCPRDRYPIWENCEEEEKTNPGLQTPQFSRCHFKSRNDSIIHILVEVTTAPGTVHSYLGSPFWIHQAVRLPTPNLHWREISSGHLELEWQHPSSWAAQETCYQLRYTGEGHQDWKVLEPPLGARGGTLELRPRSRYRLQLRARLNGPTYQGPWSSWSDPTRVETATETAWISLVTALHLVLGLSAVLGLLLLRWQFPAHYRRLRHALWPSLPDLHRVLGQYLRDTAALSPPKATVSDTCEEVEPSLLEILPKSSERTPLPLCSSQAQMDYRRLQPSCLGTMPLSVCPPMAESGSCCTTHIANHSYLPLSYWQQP

TPO receptor = biological target: T3, TPO receptor (Homo sapiens, UniProt P40238); experiment: Microphysiometer assay: rate of acidification of extracellular medium on TPO receptor stimulation; assay type: cell-based; conditions: Table 4, cyclized compounds; microphysiometer; read-out: EC50 (nM) Microonys
T3 sequence (P40238 26-635): T2 sequence (P40238 26-635)
Description: In this example cyclized compounds were subjected to three assays. […] Finally, a microphysiometer (Molecular Devices Corp.) assay was performed. […] The ranges for EC50 are symbolically indicated as for IC50 described above.

Compound	colonies of 3–5 large cells [1]	colonies of 6–12 large cells [1]	Response (AChE-positive megakaryocytes) ([2]; 1 nM)	megakaryocytes developed ([2]; One (X) nM rhuTPO, initial seeding 10^6 total marrow cells/ml (50 ml cultures), 7 days)	Response (AChE-positive megakaryocytes) ([2]; 1000 nM (putative 1:4 complex), maximal = 25–30% AChE staining cells)	IC50 (TPO-R)	EC50 [3]	EC50 (TPO receptor)
TPO: recombinant human TPO (thrombopoietin)	15 and 12 and 16 and 13	6 and 1 and 8 and 3	“maximal”	1 to 2×10^6 megakaryocytes	–	–	–	–
S.A. alone: streptavidin alone [reference compound]	–	–	–	–	none	–	–	–
CC[C@H](C)[C@@H]1NC(=O)[C@H](Cc2c[nH]c3ccccc23)NC(=O)[C@H](CCC(=O)O)NC(=O)[C@H](CCCNC(=N)N)NC(=O)[C@H](CC(C)C)NC(=O)[C@H]([C@@H](C)O)NC(=O)[C@@H]2CCCN2C(=O)CNC(=O)[C@H](CC(=O)O)NC(=O)[C@H](C)NC(=O)[C@@H](N)CCSSCC[C@@H](C(N)=O)NC(=O)[C@H](Cc2ccccc2)NC(=O)[C@H](CO)NC1=O (HELM PEPTIDE1{[N[C@@H](CCS[*:3])C(=O)[*:2]].A.D.G.P.T.L.R.E.W.I.S.F.[O=C([C@H](CCS[*:3])N[*:1])[*:2]].[am]}$PEPTIDE1,PEPTIDE1,1:R3-14:R3$$$V2.0)	–	–	–	–	–	≤ 500 nM	< 200000 nM	< 200000 nM
CC[C@H](C)[C@@H]1NC(=O)[C@H](Cc2c[nH]c3ccccc23)NC(=O)[C@H](CCC(=O)O)NC(=O)[C@H](CCCNC(=N)N)NC(=O)[C@H](CC(C)C)NC(=O)[C@H]([C@@H](C)O)NC(=O)[C@@H]2CCCN2C(=O)CNC(=O)[C@H](CC(=O)O)NC(=O)[C@H](C)NC(=O)[C@@H](N)CSSC[C@H](C(N)=O)NC(=O)[C@H](Cc2ccccc2)NC(=O)[C@H](CO)NC1=O (HELM PEPTIDE1{C.A.D.G.P.T.L.R.E.W.I.S.F.[dC].[am]}$PEPTIDE1,PEPTIDE1,1:R3-14:R3$$$V2.0)	–	–	–	–	–	≤ 500 nM	< 200000 nM	< 200000 nM
CC[C@H](C)[C@@H]1NC(=O)[C@H](Cc2c[nH]c3ccccc23)NC(=O)[C@H](CCC(=O)O)NC(=O)[C@H](CCCNC(=N)N)NC(=O)[C@H](CC(C)C)NC(=O)[C@H]([C@@H](C)O)NC(=O)[C@@H]2CCCN2C(=O)CNC(=O)[C@H](CC(=O)O)NC(=O)[C@H](C)NC(=O)CSCC[C@@H](C(N)=O)NC(=O)[C@H](Cc2ccccc2)NC(=O)[C@H](CO)NC1=O (HELM PEPTIDE1{[O=C(C[*:3])[*:2]].A.D.G.P.T.L.R.E.W.I.S.F.[O=C([C@H](CCS[*:3])N[*:1])[*:2]].[am]}$PEPTIDE1,PEPTIDE1,1:R3-14:R3$$$V2.0)	–	–	–	–	–	≤ 500 nM	< 200000 nM	< 200000 nM
CC[C@H](C)[C@@H]1NC(=O)[C@H](Cc2c[nH]c3ccccc23)NC(=O)[C@H](CCC(=O)O)NC(=O)[C@H](CCCNC(=N)N)NC(=O)[C@H](CC(C)C)NC(=O)[C@H]([C@@H](C)O)NC(=O)[C@@H]2CCCN2C(=O)CNC(=O)[C@H](CC(=O)O)NC(=O)[C@H](C)NC(=O)C(c2ccccc2)SC[C@@H](C(N)=O)NC(=O)[C@H](Cc2ccccc2)NC(=O)[C@H](CO)NC1=O (some centres unmarked) (HELM PEPTIDE1{A.D.G.P.T.L.R.E.W.I.S.F.C.[am]}|CHEM1{[O=C(C(c1ccccc1)[*:2])[*:1]]}$PEPTIDE1,CHEM1,1:R1-1:R1|PEPTIDE1,CHEM1,13:R3-1:R2$$$V2.0)	–	–	–	–	–	≤ 500 nM	< 500 nM	< 200000 nM
CC[C@H](C)[C@@H]1NC(=O)[C@H](Cc2c[nH]c3ccccc23)NC(=O)[C@H](CCC(=O)O)NC(=O)[C@H](CCCNC(=N)N)NC(=O)[C@H](CC(C)C)NC(=O)[C@H]([C@@H](C)O)NC(=O)[C@@H]2CCCN2C(=O)CNC(=O)[C@H](CC(=O)O)NC(=O)[C@H](C)NC(=O)[C@@H](N)C(C)(C)SSC[C@@H](C(N)=O)NC(=O)[C@H](Cc2ccccc2)NC(=O)[C@H](CO)NC1=O (HELM PEPTIDE1{[Pen].A.D.G.P.T.L.R.E.W.I.S.F.C.[am]}$PEPTIDE1,PEPTIDE1,1:R3-14:R3$$$V2.0)	–	–	–	–	–	≤ 500 nM	< 500 nM	< 500 nM

— patent publication US8227422B2, “Peptides and compounds that bind to a receptor” (Glaxosmithkline LLC, priority 1996, dated 2012)
